Laboratory results as given in ChEMBL document CHEMBL1944514, “Fluorescence detection of single nucleotide polymorphisms using nucleic acid probe containing tricyclic base-linked acyclonucleoside” (Bioorg Med Chem Lett, 2012).
Calls of active or inactive are those of the source. The rule behind the calls is not given here.

Assays:
Type in all cases: nucleic-acid assay
[1] = system: Nucleic Acid; test: Binding affinity to 3'-r(CUUCCAGUUUCAUAGAGA)-5' RNA assessed as fluorescence quenching by spectrophotometry
[2] = system: Nucleic Acid; test: Binding affinity to 3'-r(CUUCCAGUUACAUAGAGA)-5' RNA assessed as fluorescence quenching by spectrophotometry
[3] = system: Nucleic Acid; test: Binding affinity to 3'-r(CUUCCAGUUGCAUAGAGA)-5' RNA assessed as fluorescence quenching by spectrophotometry
[4] = system: Nucleic Acid; test: Binding affinity to 3'-r(CUUCCAGUUCCAUAGAGA)-5' RNA assessed as fluorescence quenching by spectrophotometry

Activity [1]	Activity [2]	Activity [3]	Activity [4]	SMILES
inactive	Active	Active	Active	Cc1cn([C@H]2C[C@H](OP(=O)(O)OC[C@H]3O[C@@H](n4ccc(N)nc4=O)C[C@@H]3OP(=O)(O)OC[C@H]3O[C@@H](n4cnc5c(N)ncnc54)C[C@@H]3OP(=O)(O)OC[C@H]3O[C@@H](n4cnc5c(N)ncnc54)C[C@@H]3OP(=O)(O)OC[C@H](Cn3cnc4cc5c(N)ncnc5nc43)OP(=O)(O)OC[C@H]3O[C@@H](n4cnc5c(N)ncnc54)C[C@@H]3OP(=O)(O)OC[C@H]3O[C@@H](n4cnc5c(=O)[nH]c(N)nc54)C[C@@H]3OP(=O)(O)CC[C@H]3O[C@@H](n4cc(C)c(=O)[nH]c4=O)C[C@@H]3OP(=O)(O)OC[C@H]3O[C@@H](n4cnc5c(N)ncnc54)C[C@@H]3OP(=O)(O)OC[C@H]3O[C@@H](n4cc(C)c(=O)[nH]c4=O)C[C@@H]3OP(=O)(O)OC[C@H]3O[C@@H](n4ccc(N)nc4=O)C[C@@H]3OP(=O)(O)OC[C@H]3O[C@@H](n4cc(C)c(=O)[nH]c4=O)C[C@@H]3OP(=O)(O)OC[C@H]3O[C@@H](n4ccc(N)nc4=O)C[C@@H]3OP(=O)(O)OC[C@H]3O[C@@H](n4cc(C)c(=O)[nH]c4=O)C[C@@H]3O)[C@@H](COP(=O)(O)O[C@H]3C[C@H](n4cnc5c(=O)[nH]c(N)nc54)O[C@@H]3COP(=O)(O)O[C@H]3C[C@H](n4cnc5c(=O)[nH]c(N)nc54)O[C@@H]3COP(=O)(O)O[C@H]3C[C@H](n4cnc5c(N)ncnc54)O[C@@H]3COP(=O)(O)O[C@H]3C[C@H](n4cnc5c(N)ncnc54)O[C@@H]3COP(=O)(O)O[C@H]3C[C@H](n4cnc5c(=O)[nH]c(N)nc54)O[C@@H]3CO)O2)c(=O)nc1N
Active	inactive	Active	Active	Cc1cn([C@H]2C[C@H](OP(=O)(O)OC[C@H]3O[C@@H](n4ccc(N)nc4=O)C[C@@H]3OP(=O)(O)OC[C@H]3O[C@@H](n4cnc5c(N)ncnc54)C[C@@H]3OP(=O)(O)OC[C@H]3O[C@@H](n4cnc5c(N)ncnc54)C[C@@H]3OP(=O)(O)OC[C@H]3O[C@@H](n4cc(C)c(=O)[nH]c4=O)C[C@@H]3OP(=O)(O)OC[C@H](Cn3cnc4cc5c(N)ncnc5nc43)OP(=O)(O)OC[C@H]3O[C@@H](n4cnc5c(=O)[nH]c(N)nc54)C[C@@H]3OP(=O)(O)CC[C@H]3O[C@@H](n4cc(C)c(=O)[nH]c4=O)C[C@@H]3OP(=O)(O)OC[C@H]3O[C@@H](n4cnc5c(N)ncnc54)C[C@@H]3OP(=O)(O)OC[C@H]3O[C@@H](n4cc(C)c(=O)[nH]c4=O)C[C@@H]3OP(=O)(O)OC[C@H]3O[C@@H](n4ccc(N)nc4=O)C[C@@H]3OP(=O)(O)OC[C@H]3O[C@@H](n4cc(C)c(=O)[nH]c4=O)C[C@@H]3OP(=O)(O)OC[C@H]3O[C@@H](n4ccc(N)nc4=O)C[C@@H]3OP(=O)(O)OC[C@H]3O[C@@H](n4cc(C)c(=O)[nH]c4=O)C[C@@H]3O)[C@@H](COP(=O)(O)O[C@H]3C[C@H](n4cnc5c(=O)[nH]c(N)nc54)O[C@@H]3COP(=O)(O)O[C@H]3C[C@H](n4cnc5c(=O)[nH]c(N)nc54)O[C@@H]3COP(=O)(O)O[C@H]3C[C@H](n4cnc5c(N)ncnc54)O[C@@H]3COP(=O)(O)O[C@H]3C[C@H](n4cnc5c(N)ncnc54)O[C@@H]3COP(=O)(O)O[C@H]3C[C@H](n4cnc5c(=O)[nH]c(N)nc54)O[C@@H]3CO)O2)c(=O)nc1N
